Measured values published in ChEMBL document CHEMBL4308841, “Synthesis, in vitro antiproliferative activity, and kinase inhibitory effects of pyrazole-containing diarylureas and diarylamides” (Eur J Med Chem, 2018).

Columns and labels:
UO-31 = test: Growth inhibition of human UO31 cells assessed as cell growth at 0.1 uM incubated for 48 hrs by sulforhodamine B assay relative to control; assay type: functional; settings: UO-31, 48 h, read-out: Activity
BT-549 [1] = test: Growth inhibition of human BT549 cells incubated for 48 hrs by sulforhodamine B assay; assay type: functional, cell-based; settings: BT-549, 48 h
SR = test: Growth inhibition of human SR cells incubated for 48 hrs by sulforhodamine B assay; assay type: functional, cell-based
BT-549 [2] = test: Growth inhibition of human BT549 cells assessed as cell growth at 1 uM incubated for 48 hrs by sulforhodamine B assay relative to control; assay type: functional; settings: BT-549, 48 h, read-out: Activity
M14 [3] = test: Growth inhibition of human M14 cells assessed as cell growth at 0.1 uM incubated for 48 hrs by sulforhodamine B assay relative to control; assay type: functional; settings: M14, 48 h, read-out: Activity
MOLT-4 = test: Growth inhibition of human MOLT4 cells incubated for 48 hrs by sulforhodamine B assay; assay type: functional, cell-based; settings: MOLT-4, 48 h
Malme-3M = test: Growth inhibition of human MALME-3M cells assessed as cell growth at 100 uM incubated for 48 hrs by sulforhodamine B assay relative to control; assay type: functional; settings: read-out: Activity
SK-MEL-28 = test: Growth inhibition of human SK-MEL-28 cells assessed as cell growth at 100 uM incubated for 48 hrs by sulforhodamine B assay relative to control; assay type: functional; settings: SK-MEL-28, 48 h, read-out: Activity
OVCAR-4 = test: Growth inhibition of human OVCAR4 cells assessed as cell growth at 1 uM incubated for 48 hrs by sulforhodamine B assay relative to control; assay type: functional; settings: OVCAR-4, 48 h, read-out: Activity
NCI-H460 = test: Growth inhibition of human NCI-H460 cells assessed as cell growth at 0.1 uM incubated for 48 hrs by sulforhodamine B assay relative to control; assay type: functional; settings: NCI-H460, 48 h, read-out: Activity
U-251 = test: Growth inhibition of human U251 cells assessed as cell growth at 0.01 uM incubated for 48 hrs by sulforhodamine B assay relative to control; assay type: functional; settings: U-251, 48 h, read-out: Activity
SNB-75 = test: Growth inhibition of human SNB75 cells assessed as cell growth at 1 uM incubated for 48 hrs by sulforhodamine B assay relative to control; assay type: functional; settings: SNB-75, 48 h, read-out: Activity
SF-268 [4] = test: Growth inhibition of human SF268 cells incubated for 48 hrs by sulforhodamine B assay; assay type: functional, cell-based; settings: SF-268, 48 h
A549 = test: Growth inhibition of human A549/ATCC cells assessed as cell growth at 100 uM incubated for 48 hrs by sulforhodamine B assay relative to control; assay type: functional; settings: A549, 48 h, read-out: Activity
OVCAR-5 = test: Growth inhibition of human OVCAR5 cells assessed as cell growth at 1 uM incubated for 48 hrs by sulforhodamine B assay relative to control; assay type: functional; settings: OVCAR-5, 48 h, read-out: Activity
SF-539 = test: Growth inhibition of human SF539 cells incubated for 48 hrs by sulforhodamine B assay; assay type: functional, cell-based; settings: SF-539, 48 h
SF-268 [5] = test: Growth inhibition of human SF268 cells assessed as cell growth at 100 uM incubated for 48 hrs by sulforhodamine B assay relative to control; assay type: functional; settings: SF-268, 48 h, read-out: Activity
HOP-62 = test: Growth inhibition of human HOP62 cells assessed as cell growth at 0.01 uM incubated for 48 hrs by sulforhodamine B assay relative to control; assay type: functional; settings: HOP-62, 48 h, read-out: Activity
M14 [6] = test: Growth inhibition of human M14 cells assessed as cell growth at 1 uM incubated for 48 hrs by sulforhodamine B assay relative to control; assay type: functional; settings: M14, 48 h, read-out: Activity
SK-MEL-5 [7] = test: Growth inhibition of human SK-MEL-5 cells incubated for 48 hrs by sulforhodamine B assay; assay type: functional, cell-based; settings: SK-MEL-5, 48 h
SK-MEL-2 = test: Growth inhibition of human SK-MEL-2 cells incubated for 48 hrs by sulforhodamine B assay; assay type: functional, cell-based; settings: SK-MEL-2, 48 h
MCF7 = test: Growth inhibition of human MCF7 cells incubated for 48 hrs by sulforhodamine B assay; assay type: functional, cell-based; settings: MCF7, 48 h
NCI-H522 = test: Growth inhibition of human NCI-H522 cells assessed as cell growth at 100 uM incubated for 48 hrs by sulforhodamine B assay relative to control; assay type: functional; settings: NCI-H522, 48 h, read-out: Activity
SK-MEL-5 [8] = test: Growth inhibition of human SK-MEL-5 cells assessed as cell growth at 1 uM incubated for 48 hrs by sulforhodamine B assay relative to control; assay type: functional; settings: SK-MEL-5, 48 h, read-out: Activity
NCI-H226 = test: Growth inhibition of human NCI-H226 cells incubated for 48 hrs by sulforhodamine B assay; assay type: functional, cell-based; settings: NCI-H226, 48 h
SN12C = test: Growth inhibition of human SN12C cells assessed as cell growth at 100 uM incubated for 48 hrs by sulforhodamine B assay relative to control; assay type: functional; settings: read-out: Activity
786-0 = test: Growth inhibition of human 786-0 cells incubated for 48 hrs by sulforhodamine B assay; assay type: functional, cell-based; settings: 786-0, 48 h
[9] = read-out: LC50 (the source's name)
[10] = read-out: pLC50 (the source's name) (converted)

COc1cc(Cl)cc(-c2nn(-c3cccc(NC(=O)c4cccc(C(F)(F)F)c4)c3)cc2-c2ccncc2)c1
growth at 0.1 µM (UO-31): 88%
GI50 (BT-549 [1]; read-out: GI50): > 100 µM
CC50 (BT-549 [1]; [9]): > 100 µM
TGI (BT-549 [1]; read-out: TGI): > 100 µM
GI50 (BT-549 [1]; read-out: pGI50 (converted)): > 100 µM
CC50 (BT-549 [1]; [10]): > 100 µM
TGI (BT-549 [1]; read-out: pTGI (converted)): > 100 µM
GI50 (SR; read-out: GI50): 2.48 µM
CC50 (SR; [9]): > 100 µM
TGI (SR; read-out: TGI): > 100 µM
GI50 (SR; read-out: pGI50 (converted)): 3.09 µM
CC50 (SR; [10]): > 100 µM
TGI (SR; read-out: pTGI (converted)): > 100 µM
growth at 1 µM (BT-549 [2]): 94%
growth at 0.1 µM (M14 [3]): 93%
GI50 (MOLT-4; read-out: GI50): 2.73 µM
CC50 (MOLT-4; [9]): > 100 µM
TGI (MOLT-4; read-out: TGI): > 100 µM
GI50 (MOLT-4; read-out: pGI50 (converted)): 2.75 µM
CC50 (MOLT-4; [10]): > 100 µM
TGI (MOLT-4; read-out: pTGI (converted)): > 100 µM
growth at 100 µM (Malme-3M): 55%
growth at 100 µM (SK-MEL-28): 75%
growth at 1 µM (OVCAR-4): 97%
growth at 0.1 µM (NCI-H460): 99%
growth at 0.01 µM (U-251): 94%
growth at 1 µM (SNB-75): 70%
GI50 (SF-268 [4]; read-out: GI50): > 100 µM
CC50 (SF-268 [4]; [9]): > 100 µM
TGI (SF-268 [4]; read-out: TGI): > 100 µM
GI50 (SF-268 [4]; read-out: pGI50 (converted)): > 100 µM
CC50 (SF-268 [4]; [10]): > 100 µM
TGI (SF-268 [4]; read-out: pTGI (converted)): > 100 µM
growth at 100 µM (A549): 30%
growth at 1 µM (OVCAR-5): 96%
GI50 (SF-539; read-out: GI50): > 100 µM
CC50 (SF-539; [9]): > 100 µM
TGI (SF-539; read-out: TGI): > 100 µM
GI50 (SF-539; read-out: pGI50 (converted)): > 100 µM
CC50 (SF-539; [10]): > 100 µM
TGI (SF-539; read-out: pTGI (converted)): > 100 µM
growth at 100 µM (SF-268 [5]): 58%
growth at 0.01 µM (HOP-62): 104%
growth at 1 µM (M14 [6]): 83%
GI50 (SK-MEL-5 [7]; read-out: GI50): 5.43 µM
CC50 (SK-MEL-5 [7]; [9]): > 100 µM
TGI (SK-MEL-5 [7]; read-out: TGI): > 100 µM
GI50 (SK-MEL-5 [7]; read-out: pGI50 (converted)): 5.37 µM
CC50 (SK-MEL-5 [7]; [10]): > 100 µM
TGI (SK-MEL-5 [7]; read-out: pTGI (converted)): > 100 µM
GI50 (SK-MEL-2; read-out: GI50): 0.78 µM
CC50 (SK-MEL-2; [9]): > 100 µM
TGI (SK-MEL-2; read-out: TGI): > 100 µM
GI50 (SK-MEL-2; read-out: pGI50 (converted)): 6.76 µM
CC50 (SK-MEL-2; [10]): > 100 µM
TGI (SK-MEL-2; read-out: pTGI (converted)): > 100 µM
GI50 (MCF7; read-out: GI50): 4.17 µM
LC50 (MCF7; read-out: LC50): > 100 µM
TGI (MCF7; read-out: TGI): > 100 µM
GI50 (MCF7; read-out: pGI50 (converted)): 4.17 µM
LC50 (MCF7; read-out: pLC50 (converted)): > 100 µM
TGI (MCF7; read-out: pTGI (converted)): > 100 µM
growth at 100 µM (NCI-H522): 18%
growth at 1 µM (SK-MEL-5 [8]): 57%
GI50 (NCI-H226; read-out: GI50): > 100 µM
LC50 (NCI-H226; read-out: LC50): > 100 µM
TGI (NCI-H226; read-out: TGI): > 100 µM
GI50 (NCI-H226; read-out: pGI50 (converted)): > 100 µM
LC50 (NCI-H226; read-out: pLC50 (converted)): > 100 µM
TGI (NCI-H226; read-out: pTGI (converted)): > 100 µM
growth at 100 µM (SN12C): 52%
GI50 (786-0; read-out: GI50): 1.57 µM
CC50 (786-0; [9]): > 100 µM
TGI (786-0; read-out: TGI): > 100 µM
GI50 (786-0; read-out: pGI50 (converted)): 16.6 µM
CC50 (786-0; [10]): > 100 µM
TGI (786-0; read-out: pTGI (converted)): > 100 µM
